{"source": "ChEMBL document CHEMBL3734721", "about": "(J Med Chem, 2015)", "key": {"[1]": {"target": "T1, 5-hydroxytryptamine receptor 6 (Homo sapiens, UniProt P50406)", "T1 sequence (P50406 whole entry)": "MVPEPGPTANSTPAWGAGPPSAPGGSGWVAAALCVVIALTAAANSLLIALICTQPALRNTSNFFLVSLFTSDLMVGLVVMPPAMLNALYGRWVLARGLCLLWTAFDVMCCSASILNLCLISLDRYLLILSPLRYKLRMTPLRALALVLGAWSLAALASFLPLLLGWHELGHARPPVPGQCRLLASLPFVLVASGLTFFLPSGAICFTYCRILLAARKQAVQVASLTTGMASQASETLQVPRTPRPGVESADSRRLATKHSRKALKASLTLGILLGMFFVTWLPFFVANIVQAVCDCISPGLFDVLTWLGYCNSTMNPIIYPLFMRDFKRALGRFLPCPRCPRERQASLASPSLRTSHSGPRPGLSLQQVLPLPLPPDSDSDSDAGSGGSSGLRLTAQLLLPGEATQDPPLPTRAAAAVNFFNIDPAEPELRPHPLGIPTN", "assay": "Agonist activity at human 5-HT6 receptor expressed in 1321N1 cells assessed as cAMP by HTRF assay", "format": "functional, cell-based"}, "[2]": {"assay": "Chemical stability of compound in buffer at pH 7.4 assessed as compound remaining at 10 mg/ml after 1 day", "format": "physicochemical", "details": "read-out: Stability"}, "Cytochrome P450 1A2": {"target": "T2, Cytochrome P450 1A2 (Homo sapiens, UniProt P05177)", "T2 sequence (P05177 whole entry)": "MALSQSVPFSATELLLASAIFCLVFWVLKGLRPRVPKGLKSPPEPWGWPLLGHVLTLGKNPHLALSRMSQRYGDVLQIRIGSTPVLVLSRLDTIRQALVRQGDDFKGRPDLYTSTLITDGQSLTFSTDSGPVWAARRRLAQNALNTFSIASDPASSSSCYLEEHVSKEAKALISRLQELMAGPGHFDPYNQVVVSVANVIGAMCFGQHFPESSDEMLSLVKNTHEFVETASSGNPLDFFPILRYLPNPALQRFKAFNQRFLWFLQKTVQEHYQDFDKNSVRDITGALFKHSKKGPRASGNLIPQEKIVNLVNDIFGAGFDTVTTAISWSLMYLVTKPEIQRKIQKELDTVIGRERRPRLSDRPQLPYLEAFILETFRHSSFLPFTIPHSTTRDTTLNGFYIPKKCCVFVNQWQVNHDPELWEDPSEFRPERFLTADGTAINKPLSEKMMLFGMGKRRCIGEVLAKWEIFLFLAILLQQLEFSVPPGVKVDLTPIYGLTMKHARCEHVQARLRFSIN", "assay": "Inhibition of human CYP1A2 by LC-MS analysis", "format": "ADME"}, "[3]": {"assay": "Chemical stability of compound in 0.1N HCL assessed as compound remaining at 10 mg/ml after 1 day", "format": "physicochemical", "details": "read-out: Stability"}, "[4]": {"assay": "Chemical stability of compound in 0.1N NaOH assessed as compound remaining at 10 mg/ml after 2 days", "format": "physicochemical", "details": "read-out: Stability"}, "[5]": {"assay": "Chemical stability of compound in buffer at pH 7.4 assessed as compound remaining at 10 mg/ml after 2 days", "format": "physicochemical", "details": "read-out: Stability"}, "[6]": {"assay": "Chemical stability of compound in DMSO assessed as compound remaining at 10 mg/ml after 1 day at room temperature", "format": "physicochemical", "details": "read-out: Stability"}, "human MDR1": {"tested_on": "human MDR1", "assay": "Permeability across apical to basolateral in MDCK expressing human MDR1 at 5 uM by LC-MS/MS method", "format": "ADME, cell-based, Canis lupus familiaris", "details": "dog, read-out: permeability"}, "HepG2": {"tested_on": "HepG2", "assay": "Cytotoxicity against human HepG2 cells", "format": "cell-based"}, "[7]": {"assay": "Ratio of drug level in brain to plasma in Swiss mouse at 5 mg/kg, sc", "format": "ADME, organism-based", "details": "read-out: BPR"}, "[8]": {"assay": "Fraction unbound in rat plasma at 5 uM after 4.5 hrs by LC-MS/MS analysis", "format": "ADME, cell-free"}, "Cytochrome P450 2C19": {"target": "Cytochrome P450 2C19 (Homo sapiens, UniProt P33261)", "sequence (P33261 whole entry)": "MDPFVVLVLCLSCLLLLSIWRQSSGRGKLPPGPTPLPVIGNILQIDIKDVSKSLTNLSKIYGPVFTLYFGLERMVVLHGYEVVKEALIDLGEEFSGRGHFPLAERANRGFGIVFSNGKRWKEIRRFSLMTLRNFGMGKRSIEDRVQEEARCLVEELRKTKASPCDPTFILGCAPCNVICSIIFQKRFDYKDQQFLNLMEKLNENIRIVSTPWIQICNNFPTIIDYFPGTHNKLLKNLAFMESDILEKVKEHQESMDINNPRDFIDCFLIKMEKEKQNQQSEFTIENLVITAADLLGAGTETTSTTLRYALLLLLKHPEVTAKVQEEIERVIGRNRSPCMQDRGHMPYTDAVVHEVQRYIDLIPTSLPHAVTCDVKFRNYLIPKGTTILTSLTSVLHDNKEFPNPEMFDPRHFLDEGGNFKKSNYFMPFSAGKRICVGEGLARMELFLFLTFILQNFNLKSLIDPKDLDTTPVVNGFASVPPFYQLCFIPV", "assay": "Inhibition of human CYP2C19 by LC-MS analysis", "format": "ADME"}, "[9]": {"assay": "Fraction unbound in mouse plasma at 5 uM after 4.5 hrs by LC-MS/MS analysis", "format": "ADME, cell-free"}, "Cytochrome P450 2C8": {"target": "T3, Cytochrome P450 2C8 (Homo sapiens, UniProt P10632)", "T3 sequence (P10632 whole entry)": "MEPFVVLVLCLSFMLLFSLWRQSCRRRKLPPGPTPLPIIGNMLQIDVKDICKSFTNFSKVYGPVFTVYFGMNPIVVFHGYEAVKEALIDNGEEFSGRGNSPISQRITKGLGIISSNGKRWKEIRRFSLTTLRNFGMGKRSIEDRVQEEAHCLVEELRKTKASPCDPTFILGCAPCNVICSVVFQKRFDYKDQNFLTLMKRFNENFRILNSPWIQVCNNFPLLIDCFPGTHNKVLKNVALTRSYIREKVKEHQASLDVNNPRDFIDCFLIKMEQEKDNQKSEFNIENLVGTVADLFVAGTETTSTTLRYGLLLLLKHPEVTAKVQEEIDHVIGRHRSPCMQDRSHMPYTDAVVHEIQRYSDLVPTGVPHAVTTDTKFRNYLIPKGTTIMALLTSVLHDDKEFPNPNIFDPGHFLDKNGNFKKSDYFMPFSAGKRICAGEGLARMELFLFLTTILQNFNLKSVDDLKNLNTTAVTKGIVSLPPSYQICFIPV", "assay": "Inhibition of human CYP2C8 by LC-MS analysis", "format": "ADME"}, "[10]": {"target": "T4, 5-hydroxytryptamine receptor 7 (Homo sapiens, UniProt P34969)", "T4 sequence (P34969 whole entry)": "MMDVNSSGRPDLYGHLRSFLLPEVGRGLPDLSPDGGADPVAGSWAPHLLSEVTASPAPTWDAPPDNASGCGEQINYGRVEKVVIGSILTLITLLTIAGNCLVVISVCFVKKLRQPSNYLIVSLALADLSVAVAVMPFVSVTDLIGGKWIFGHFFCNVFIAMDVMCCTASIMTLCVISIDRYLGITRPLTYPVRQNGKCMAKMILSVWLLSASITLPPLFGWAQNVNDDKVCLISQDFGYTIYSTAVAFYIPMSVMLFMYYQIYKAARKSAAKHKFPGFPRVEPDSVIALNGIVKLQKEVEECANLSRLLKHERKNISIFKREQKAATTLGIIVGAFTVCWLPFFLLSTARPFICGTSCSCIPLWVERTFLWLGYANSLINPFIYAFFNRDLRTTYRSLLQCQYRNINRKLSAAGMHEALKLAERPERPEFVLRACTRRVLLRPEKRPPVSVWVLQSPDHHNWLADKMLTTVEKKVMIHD", "assay": "Antagonist activity at human wild-type 5-HT7 receptor expressed in HEK cells assessed as seretonin-induced cAMP by HTRF assay", "format": "functional, cell-based, HEK293"}, "[11]": {"assay": "Kinetic solubility of compound in phosphate buffer at pH 7.4 for 4 hrs by UPLC/UV analysis", "format": "physicochemical", "details": "read-out: Kinetic_solubility"}, "Cytochrome P450 2C9": {"target": "Cytochrome P450 2C9 (Homo sapiens, UniProt P11712)", "sequence (P11712 whole entry)": "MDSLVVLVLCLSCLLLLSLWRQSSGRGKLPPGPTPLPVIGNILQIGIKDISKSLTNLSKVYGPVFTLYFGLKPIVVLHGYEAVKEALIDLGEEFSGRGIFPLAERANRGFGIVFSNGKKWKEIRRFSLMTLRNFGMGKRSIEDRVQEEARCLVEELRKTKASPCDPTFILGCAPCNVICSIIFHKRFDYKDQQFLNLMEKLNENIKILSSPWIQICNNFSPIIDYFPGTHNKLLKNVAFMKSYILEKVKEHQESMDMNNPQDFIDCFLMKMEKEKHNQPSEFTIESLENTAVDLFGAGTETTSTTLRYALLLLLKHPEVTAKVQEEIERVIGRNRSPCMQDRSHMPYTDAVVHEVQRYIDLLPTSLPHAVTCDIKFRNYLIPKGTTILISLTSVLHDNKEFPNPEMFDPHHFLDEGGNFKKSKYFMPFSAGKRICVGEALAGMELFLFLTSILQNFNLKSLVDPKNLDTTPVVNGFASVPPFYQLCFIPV", "assay": "Inhibition of human CYP2C9 by LC-MS analysis", "format": "ADME"}, "[12]": {"assay": "Chemical stability of compound in 0.1N HCL and 0.5% H2O2 assessed as compound remaining at 10 mg/ml after 1 day", "format": "physicochemical", "details": "read-out: Stability"}, "[13]": {"target": "T4, 5-hydroxytryptamine receptor 7", "assay": "Agonist activity at human wild-type 5-HT7 receptor expressed in HEK cells assessed as cAMP by HTRF assay", "format": "functional, cell-based, HEK293"}, "[14]": {"assay": "Chemical stability of compound in 0.1N NaOH assessed as compound remaining at 10 mg/ml after 1 day", "format": "physicochemical", "details": "read-out: Stability"}, "[15]": {"assay": "Cmax in Swiss mouse brain at 5 mg/kg, sc", "format": "ADME, organism-based", "design": "dose 5 mg/kg, route subcutaneous"}, "[16]": {"assay": "Fraction unbound in human plasma at 5 uM after 4.5 hrs by LC-MS/MS analysis", "format": "ADME, cell-free"}, "[17]": {"assay": "Chemical stability of compound in DMSO assessed as compound remaining at 10 mg/ml after 2 days at room temperature", "format": "physicochemical", "details": "read-out: Stability"}, "[18]": {"assay": "Chemical stability of compound in DMSO assessed as compound remaining at 10 mg/ml after 24 days at room temperature under air", "format": "physicochemical", "details": "read-out: Stability"}, "[19]": {"assay": "Fraction unbound in rat brain at 5 uM after 5 hrs by LC-MS/MS analysis", "format": "ADME, tissue-based"}, "[20]": {"target": "T1, 5-hydroxytryptamine receptor 6", "assay": "Antagonist activity at human 5-HT6 receptor expressed in 1321N1 cells assessed as seretonin-induced cAMP by HTRF assay", "format": "functional, cell-based"}}, "data": [{"molecule": "CC(C)NCC(O)COc1cccc2ccccc12", "note": "(stereo unspecified) [PROPRANOLOL]", "values": [{"measurement": "EC50", "setting": "[1]", "value": "> 5.01", "unit": "µM"}, {"measurement": "remaining at 24 h, 10 mg/ml", "setting": "[2]", "value": 100, "unit": "%"}, {"measurement": "IC50", "setting": "Cytochrome P450 1A2", "value": "> 10", "unit": "µM"}, {"measurement": "remaining at 24 h, 10 mg/ml", "setting": "[3]", "value": 100, "unit": "%"}, {"measurement": "remaining at 48 h, 10 mg/ml", "setting": "[4]", "value": 100, "unit": "%"}, {"measurement": "remaining at 48 h, 10 mg/ml", "setting": "[5]", "value": 100, "unit": "%"}, {"measurement": "remaining at 24 h, 10 mg/ml", "setting": "[6]", "value": 100, "unit": "%"}, {"measurement": "Papp A→B at 5 µM", "setting": "human MDR1", "value": 3.5, "unit": "×10⁻⁶ cm/s"}, {"measurement": "EC20", "setting": "HepG2", "value": "> 100", "unit": "µM"}, {"measurement": "Kp", "setting": "[7]", "value": 23}, {"measurement": "fraction unbound at 4.5 h, 5 µM", "setting": "[8]", "value": 0.239}, {"measurement": "IC50", "setting": "Cytochrome P450 2C19", "value": "> 10", "unit": "µM"}, {"measurement": "fraction unbound at 4.5 h, 5 µM", "setting": "[9]", "value": 0.212}, {"measurement": "IC50", "setting": "Cytochrome P450 2C8", "value": "> 10", "unit": "µM"}, {"measurement": "IC50", "setting": "[10]", "value": "> 5.01", "unit": "µM"}, {"measurement": "solubility kinetic at 4 h", "setting": "[11]", "value": 764, "unit": "µM"}, {"measurement": "IC50", "setting": "Cytochrome P450 2C9", "value": "> 10", "unit": "µM"}, {"measurement": "remaining at 24 h, 10 mg/ml", "setting": "[12]", "value": 100, "unit": "%"}, {"measurement": "EC50", "setting": "[13]", "value": "> 5.01", "unit": "µM"}, {"measurement": "remaining at 24 h, 10 mg/ml", "setting": "[14]", "value": 100, "unit": "%"}, {"measurement": "Cmax", "setting": "[15]", "value": 16, "unit": "µM"}, {"measurement": "fraction unbound at 4.5 h, 5 µM", "setting": "[16]", "value": 0.421}, {"measurement": "remaining at 48 h, 10 mg/ml", "setting": "[17]", "value": 100, "unit": "%"}, {"measurement": "remaining at 576 h, 10 mg/ml", "setting": "[18]", "value": 100, "unit": "%"}, {"measurement": "fraction unbound at 5 h, 5 µM", "setting": "[19]", "value": 0.028}, {"measurement": "IC50", "setting": "[20]", "value": "> 5.01", "unit": "µM"}]}]}
